We go through one compound from ChEMBL document CHEMBL5030545, “Discovery of clinical candidate Sivopixant (S-600918): Lead optimization of dioxotriazine derivatives as selective P2X3 receptor antagonists” (Bioorg Med Chem Lett, 2021).

The target of one assay is T1, P2X purinoceptor 1 (Homo sapiens, UniProt P51575).
T1 sequence (P51575 whole entry): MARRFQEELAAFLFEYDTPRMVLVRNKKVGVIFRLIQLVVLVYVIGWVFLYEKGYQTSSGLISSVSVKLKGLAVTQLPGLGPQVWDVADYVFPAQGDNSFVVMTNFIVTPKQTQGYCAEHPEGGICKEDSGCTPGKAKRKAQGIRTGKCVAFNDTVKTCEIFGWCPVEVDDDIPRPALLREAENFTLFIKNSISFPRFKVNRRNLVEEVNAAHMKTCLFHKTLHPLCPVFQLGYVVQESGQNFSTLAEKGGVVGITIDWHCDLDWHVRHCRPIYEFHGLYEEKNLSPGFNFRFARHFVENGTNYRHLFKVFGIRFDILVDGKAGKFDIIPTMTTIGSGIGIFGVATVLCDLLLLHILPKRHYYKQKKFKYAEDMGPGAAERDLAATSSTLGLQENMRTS
Briefly: Antagonist activity at P2X1 receptor (unknown origin).

A further assay deals with T2, P2X purinoceptor 7 (Homo sapiens, UniProt Q99572).
T2 sequence (Q99572 whole entry): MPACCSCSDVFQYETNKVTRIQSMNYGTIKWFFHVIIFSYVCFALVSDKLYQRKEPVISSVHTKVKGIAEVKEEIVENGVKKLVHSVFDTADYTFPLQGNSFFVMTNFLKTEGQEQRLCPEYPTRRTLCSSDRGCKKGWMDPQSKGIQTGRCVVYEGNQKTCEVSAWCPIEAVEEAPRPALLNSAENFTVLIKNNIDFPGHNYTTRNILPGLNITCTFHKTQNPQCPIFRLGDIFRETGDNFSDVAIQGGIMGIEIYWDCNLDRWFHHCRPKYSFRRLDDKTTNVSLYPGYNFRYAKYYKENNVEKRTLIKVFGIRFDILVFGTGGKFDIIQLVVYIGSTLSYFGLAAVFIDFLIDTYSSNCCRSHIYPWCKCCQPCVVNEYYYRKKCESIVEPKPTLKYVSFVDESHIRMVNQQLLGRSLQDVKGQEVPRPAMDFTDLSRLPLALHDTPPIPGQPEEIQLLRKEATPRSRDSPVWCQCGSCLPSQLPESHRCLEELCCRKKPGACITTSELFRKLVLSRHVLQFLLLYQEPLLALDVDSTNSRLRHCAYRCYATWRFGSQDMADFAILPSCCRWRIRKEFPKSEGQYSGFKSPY
In words: Antagonist activity at P2X7 receptor (unknown origin).

One may read the IC50 as the concentration at which inhibition is half-maximal.

Structures are written as SMILES. Where only a bound is given, the exact number is not on record here.

In the case of `C[C@@H](Cn1c(=O)[nH]/c(=N\c2ccc(Oc3ccccn3)cc2)n(Cc2ccc(Cl)cc2)c1=O)C(=O)O`, the IC50 at P2X purinoceptor 1 and against P2X purinoceptor 7 was greater than 30 µM in each case.
